Where a SMILES comes first, the peptide text is derived from it.
Experiments:
splenic T cells = assay: Autologous mixed lymphocyte reaction of splenic T cells from treated bleomycin mice; type: in vivo, mouse; conditions: day 7 to 21
Text: Recent studies highlighted a key role for T lymphocytes in bleomycin-induced fibrosis (Wilson, M. et al., The Journal of Experimental Medicine, 207(3): 535-552, 2010). […] Specifically, the ability of C57BL/6 purified antigen-presenting cells to induce proliferation in C57BL/6 T lymphocytes was examined in the assay.
C57-BL/6 mice were subjected to bleomycin injury at day 0. […] Splenic T cells were isolated and cultured alone or in the presence of autologous antigen presenting cells (APCs from C57-BL/6 mice) or stimulated with antibodies against CD3 (α-CD3) for 48 h. The cells then were radiolabeled with […] thymidine for 16 h and assessed for proliferation rates.

[1] = system: bleomycin-induced lung fibrosis in C57BL/6 mice; assay: Bleomycin mouse model of pulmonary fibrosis, treatment model (dosing day 14 to 28); type: in vivo; parameters: collagen deposition (hydroxyproline assay, whole left lung): dose or concentration left out as unconfirmed
Description: A mouse model of pulmonary fibrosis was generated by administering 0.025 U of bleomycin/PBS intratracheally to C57BL/6 mice. […] At 21 day post bleomycin delivery (for prevention model) or 28 post bleomycin delivery (for treatment model), groups of mice were sacrificed with a sodium pentobarbital injection (120 mg/kg) and the chest cavity was opened. The right mainstem bronchus was ligated and the right lung was removed. The trachea was cannulated and the left lung was perfused with 4% formaldehyde at 21 cm H2O pressure. The tissue blocks then were embedded in paraffin, and […] sections were prepared for staining. Sections from each animal were stained with hematoxylin and eosin (H&E) to visualize cells or with Masson's Trichrome staining to highlight collagen deposition. […] Stained sections were mounted onto a labeled glass slide with organic mounting medium.
The classic bleomycin model, as depicted in FIG. 10, has been used widely in the literature in the pre-fibrotic stage to test efficacy of any intervention. […]
Next, collagen deposition was determined quantitatively by using the standard hydroxyproline assay with whole left lung. Total collagen (soluble and insoluble) deposition was assessed by analyzing hydroxyproline concentrations in murine lungs day 28 post bleomycin injury.

phospho-Thr^334-MAPKAPK2 = assay: Activated MK2 immunostaining of lung sections, bleomycin treatment model; type: in vivo, mouse; conditions: 50 μg/kg daily IP or NEB, day 14 to 28
Text: (§1) Briefly, C57-BL/6 mice were subjected to bleomycin injury at day 0. […] Formalin-fixed lung tissue sections were immunostained against phospho-Thr^334 MK2. Control staining was with biotinylated secondary IgG antibody. Streptavidin-conjugated horseradish peroxidase was used with 3,3′-diaminobenzidene as substrate and nuclei was counterstained with hematoxylin.

TNF-α = assay: Circulating inflammatory cytokines, bleomycin treatment model; type: in vivo, mouse; conditions: intraperitoneal or nebulized; 24 hours after final administration
IL-6 = assay: as above; type: in vivo, mouse; conditions: intraperitoneal or nebulized; 24 hours after final administration
α-SMA = α-SMA immunostaining of lung sections, bleomycin treatment model; type: in vivo, mouse; conditions: 50 μg/kg/day IP or NEB, day 14 to 28; vs untreated bleomycin-injured lungs
Text: as §1, with “C57-BL/6” for “Briefly, C57-BL/6”, “α-SMA.” for “phospho-Thr^334 MK2.”, “hematoxylin. Original magnifications: 20×” for “hematoxylin.”

[2] = system: Porcine airway smooth muscle (PASM); assay: ISO-induced relaxation of airway smooth muscle rings in muscle bath; conditions: 100 μM for 1 hr; CCh-contracted rings; n=3
Text: Porcine airway smooth muscle (PASM) rings were isolated from second generation bronchi, cartilage was peeled off and then hung in a muscle bath and equilibrated in Kreb's buffer for 3 hrs. […] ISO is a β-adrenergic agonist that relaxes almost all varieties of […] when the tone is high, but its action is most pronounced on bronchial and gastrointestinal smooth muscle. It prevents or relieves bronchoconstrution. Its effect in asthma maybe due in part to an additional action to inhibit antigen-induced release of histamine and other mediators of inflammation; this action is shared by β2-receptor-selective stimulants. Goodman & Gilman's The Pharmacological Basis of Therapeutics, Joel G. Hardman and Lee E. Limberd, Eds., 10th Ed. […] Force was normalized to the weight and length of the tissue and converted to stress and relaxation induced was calculated.

[3] = system: human airway smooth muscle (HASM); assay: ISO-induced relaxation of intact airway tissues in muscle bath; conditions: 200 μM pre-treatment for 30 min; n=4
Description: (§2) (A) Representative tracings of force generation. Cumulative contractile responses to CCH (B) and % relaxation to ISO doses (C). n=4; p<0.05. Inset is an immunoblot showing MK2 phosphorylation level. HASM was hung in the muscle bath and frozen. MK2 phosphorylation was determined by SDS PAGE and immunoblotting.

MK2 phosphorylation = MK2 phosphorylation in intact airway smooth muscle, immunoblot; parameters: species or system human; conditions: 200 μM pre-treatment for 30 min
Description: as §2

Aurora-A(h) = target: T1, Aurora-A(h) (Homo sapiens, UniProt O14965); assay: Kinase Profiling Assay; type: biochemical; conditions: 100 μM peptide
T1 sequence (O14965 1-403): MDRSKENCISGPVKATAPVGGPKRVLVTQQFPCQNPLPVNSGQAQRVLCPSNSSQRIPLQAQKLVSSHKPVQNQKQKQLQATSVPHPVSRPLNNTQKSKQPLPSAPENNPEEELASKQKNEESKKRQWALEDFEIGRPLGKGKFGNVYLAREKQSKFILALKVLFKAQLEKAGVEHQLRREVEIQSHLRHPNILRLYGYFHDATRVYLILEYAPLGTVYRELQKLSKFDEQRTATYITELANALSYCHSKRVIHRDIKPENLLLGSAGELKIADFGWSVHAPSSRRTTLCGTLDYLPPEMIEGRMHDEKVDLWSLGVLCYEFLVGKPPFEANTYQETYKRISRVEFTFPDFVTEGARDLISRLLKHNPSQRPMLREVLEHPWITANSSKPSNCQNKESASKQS
Outline: (§3)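 Selectivity profiling: MK2-targeting peptides tested on 266 human kinases. All activity determinations done in duplicate.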

CLK2(h) = CLK2(h) (Homo sapiens, UniProt P49760); assay: Kinase Profiling Assay; type: biochemical; conditions: 100 μM peptide
Outline: as §3

Sequence of CLK2(h) (P49760 whole entry): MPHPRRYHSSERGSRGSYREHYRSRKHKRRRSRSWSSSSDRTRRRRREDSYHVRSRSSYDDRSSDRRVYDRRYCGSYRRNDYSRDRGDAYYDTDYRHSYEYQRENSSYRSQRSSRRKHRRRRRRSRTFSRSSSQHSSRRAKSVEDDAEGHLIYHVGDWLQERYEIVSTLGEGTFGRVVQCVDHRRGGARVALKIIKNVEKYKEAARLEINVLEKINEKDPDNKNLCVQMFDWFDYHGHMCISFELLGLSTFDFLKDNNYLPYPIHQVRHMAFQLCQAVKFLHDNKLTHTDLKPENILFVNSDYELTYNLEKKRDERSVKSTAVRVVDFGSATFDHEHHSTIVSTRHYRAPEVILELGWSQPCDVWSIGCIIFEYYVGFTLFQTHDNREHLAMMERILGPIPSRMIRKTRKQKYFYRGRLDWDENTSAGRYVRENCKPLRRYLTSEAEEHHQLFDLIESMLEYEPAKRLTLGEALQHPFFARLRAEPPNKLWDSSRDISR

CC(C)C[C@H](NC(=O)[C@H](C)NC(=O)[C@H](CCCCN)NC(=O)[C@H](C)NC(=O)[C@H](CCCNC(=N)N)NC(=O)[C@H](C)NC(=O)[C@H](CCC(N)=O)NC(=O)[C@H](CCCNC(=N)N)NC(=O)[C@H](C)NC(=O)[C@H](C)NC(=O)[C@H](C)NC(=O)[C@H](CCCNC(=N)N)NC(=O)[C@H](C)NC(=O)[C@@H](N)Cc1ccc(O)cc1)C(=O)N[C@@H](C)C(=O)N[C@@H](CCCNC(=N)N)C(=O)N[C@@H](CCC(N)=O)C(=O)N[C@@H](CC(C)C)C(=O)NCC(=O)N[C@H](C(=O)N[C@@H](C)C(=O)N[C@@H](C)C(=O)O)C(C)C [MMI-0100] (H-YARAAARQARAKALARQLGVAA-OH; N-terminus and C-terminus assumed)
proliferation of T cells in the presence of antigen presenting cells (splenic T cells; 50 μg/kg/day intraperitoneal (systemic)): significantly reduced
proliferation of T cells in the presence of antigen presenting cells (splenic T cells; 50 μg/kg/day nebulizer (inhaled)): not by the inhaled mode
toxicity (proliferative response of splenic T cells to α-CD3) (splenic T cells; 50 μg/kg/day): no toxicity
collagen deposition (hydroxyproline assay, whole left lung) ([1]; IP or NEB from day 14, day 28 post bleomycin): significantly arrested further progression of collagen deposition
lung architecture and collagen distribution (H&E, Masson's blue trichrome) ([1]; intraperitoneal or nebulized, daily day 14 to 28): clearer lung parenchyma
activated MK2 (phospho-Thr^334-MAPKAPK2) staining (phospho-Thr^334-MAPKAPK2): decreased phospho-Thr^334-MAPKAPK2 staining
plasma level of TNF-α (TNF-α): significantly reduced
plasma level of IL-6 (IL-6): significantly reduced
level of α-SMA in lungs (α-SMA): significantly attenuated
enhancement of ISO induced relaxation [2]: 13%
ISO-induced relaxation [3]: enhances ISO-induced relaxation
MK2 phosphorylation level (MK2 phosphorylation): reduced MK2 phosphorylation

FAKLAARLYRKALARQLGVAA [MMI-0300]
Aurora-A(h) % activity (Aurora-A(h)): 92%

HRRIKAWLKKIKALARQLGVAA (Mammalian) [MMI-0500]
Aurora-A(h) % activity (Aurora-A(h)): 110%

YARAAARQARAKALNRQLGVA (Mammalian) [MMI-0200]
CLK2(h) % activity (CLK2(h)): 97%
